For one assay, the target named is HDAC1 (Homo sapiens (Human), UniProt Q13547). Briefly: HDAC1 enzymatic assay. The class given is biochemical. To be noted: read-out: Human HDAC1 IC50. In a few lines:
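HDAC1 activity was measured in duplicate 50 μl reactions containing 0.5 ng HDAC1, 10 uM of HDAC substrate, and test compound in buffer (50 mM Tris-HCl, pH 7.4, 137 mM NaCl, 2.7 mM KCl, 0.05% Tween 20, 5 μg BSA) with 1% DMSO, incubated 17 hours at room temperature. HDAC Developer was then added for 20 minutes and fluorescence read at 360/460 nm.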

A further assay concerns the target HDAC6 (Homo sapiens (Human), UniProt Q9UBN7). Nature of the assay: HDAC6 enzymatic assay. The conditions noted are these: read-out: Human HDAC6 IC50. The format is biochemical. In a few lines:
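Human HDAC6 activity was measured in duplicate 50 μl reactions holding 2 ng HDAC6, 10 uM of HDAC substrate and test compound in HDAC assay buffer (50 mM Tris-HCl, pH 7.4, 137 mM NaCl, 2.7 mM KCl, 0.05% Tween 20, 5 μg BSA) with 1% DMSO, for 17 hours at room temperature. HDAC Developer was added for 20 minutes before reading fluorescence at 360/460 nm.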

Sequence of HDAC1 (Q13547 whole entry): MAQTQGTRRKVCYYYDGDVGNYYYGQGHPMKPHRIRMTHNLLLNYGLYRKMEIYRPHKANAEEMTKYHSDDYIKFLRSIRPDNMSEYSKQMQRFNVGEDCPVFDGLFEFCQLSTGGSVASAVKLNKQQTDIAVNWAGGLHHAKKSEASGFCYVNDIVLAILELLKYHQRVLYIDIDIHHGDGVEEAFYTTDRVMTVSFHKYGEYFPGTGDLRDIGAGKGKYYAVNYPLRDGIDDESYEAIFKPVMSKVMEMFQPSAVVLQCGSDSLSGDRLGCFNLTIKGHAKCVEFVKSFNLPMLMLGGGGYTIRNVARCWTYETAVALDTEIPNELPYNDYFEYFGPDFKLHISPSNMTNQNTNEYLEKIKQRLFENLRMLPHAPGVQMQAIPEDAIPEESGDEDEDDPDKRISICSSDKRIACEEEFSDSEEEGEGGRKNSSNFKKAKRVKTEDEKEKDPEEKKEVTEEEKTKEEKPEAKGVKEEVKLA
Sequence of HDAC6 (Q9UBN7 whole entry): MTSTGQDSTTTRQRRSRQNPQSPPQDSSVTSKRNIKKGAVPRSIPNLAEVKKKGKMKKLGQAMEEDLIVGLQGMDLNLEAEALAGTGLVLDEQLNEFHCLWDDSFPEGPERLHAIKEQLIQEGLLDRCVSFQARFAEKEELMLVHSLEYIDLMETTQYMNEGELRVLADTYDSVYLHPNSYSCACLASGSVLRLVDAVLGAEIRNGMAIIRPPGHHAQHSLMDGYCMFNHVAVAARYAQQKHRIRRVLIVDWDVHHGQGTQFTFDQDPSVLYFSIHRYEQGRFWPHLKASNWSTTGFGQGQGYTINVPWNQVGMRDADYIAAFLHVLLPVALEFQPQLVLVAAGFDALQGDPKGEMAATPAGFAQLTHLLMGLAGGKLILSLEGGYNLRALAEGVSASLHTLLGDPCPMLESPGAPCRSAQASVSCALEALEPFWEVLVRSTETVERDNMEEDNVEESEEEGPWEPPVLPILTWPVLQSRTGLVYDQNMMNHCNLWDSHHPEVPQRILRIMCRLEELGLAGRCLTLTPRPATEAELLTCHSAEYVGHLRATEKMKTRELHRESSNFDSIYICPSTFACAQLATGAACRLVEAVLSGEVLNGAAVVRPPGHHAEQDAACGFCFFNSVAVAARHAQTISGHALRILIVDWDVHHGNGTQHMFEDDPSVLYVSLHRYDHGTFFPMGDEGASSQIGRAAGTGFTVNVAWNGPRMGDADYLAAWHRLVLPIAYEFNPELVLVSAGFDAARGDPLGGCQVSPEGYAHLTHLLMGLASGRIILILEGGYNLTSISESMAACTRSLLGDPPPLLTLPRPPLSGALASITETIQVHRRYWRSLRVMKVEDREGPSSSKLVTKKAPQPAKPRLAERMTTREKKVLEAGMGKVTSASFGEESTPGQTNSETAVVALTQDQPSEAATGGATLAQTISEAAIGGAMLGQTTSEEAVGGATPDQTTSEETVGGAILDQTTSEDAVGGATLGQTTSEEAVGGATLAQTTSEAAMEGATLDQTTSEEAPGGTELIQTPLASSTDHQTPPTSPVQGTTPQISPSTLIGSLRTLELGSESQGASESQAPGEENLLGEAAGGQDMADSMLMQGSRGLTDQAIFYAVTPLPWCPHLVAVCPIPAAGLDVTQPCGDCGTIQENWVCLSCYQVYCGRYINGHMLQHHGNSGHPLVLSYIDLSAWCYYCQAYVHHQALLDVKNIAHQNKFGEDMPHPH

What is called IC50 is the concentration that gives 50% inhibition. `FC(F)c1nnc(-c2cnc(NC3(c4ccc(Cl)cc4)CC3)nc2)o1` [Example 50, N-(1-(4-chlorophenyl)cyclopropyl)-5-(5-(difluoromethyl)-1,3,4-oxadiazol-2-yl)pyrimidin-2-amine]: the IC50 at HDAC1 is over 30000 nM; on HDAC6, 30 nM.
`O=C(Nc1ccccc1)C(Nc1ncc(-c2nnc(C(F)F)o2)cn1)c1ccc(F)cc1` (stereo not drawn) [Example 35, 2-((5-(5-(difluoromethyl)-1,3,4-oxadiazol-2-yl)pyrimidin-2-yl)amino)-2-(4-fluorophenyl)-N-phenylacetamide]: the IC50 on HDAC1 is over 30000 nM; on HDAC6, 170 nM.
For `CCS(=O)(=O)NCC(Nc1ncc(-c2nnc(C(F)F)o2)cn1)c1ccc(OC(F)F)cc1F` (stereo not drawn) [147(+), N-(2-(4-(difluoromethoxy)-2-fluorophenyl)-2-((5-(5-(difluoromethyl)-1,3,4-oxadiazol-2-yl)pyrimidin-2-yl)amino)ethyl)ethanesulfonamide], the IC50 at HDAC1 is over 30000 nM; at HDAC6 it was 18 nM.
Take `FC(F)c1nnc(-c2cnc(NC3(c4ccnc(Br)c4)CC3)nc2)o1` [Example 82, N-(1-(2-bromopyridin-4-yl)cyclopropyl)-5-(5-(difluoromethyl)-1,3,4-oxadiazol-2-yl)pyrimidin-2-amine]: the values for the IC50 at HDAC1 and on HDAC6 were over 30000 nM and 35 nM, respectively.
As to `CS(=O)(=O)NCC(Nc1ncc(-c2nnc(C(F)F)o2)cn1)c1ccc(OC(F)F)cc1F` (single isomer, unassigned) [116(−), N-(2-(4-(difluoromethoxy)-2-fluorophenyl)-2-((5-(5-(difluoromethyl)-1,3,4-oxadiazol-2-yl)pyrimidin-2-yl)amino)ethyl)methanesulfonamide], the IC50 was over 30000 nM at HDAC1 and 260 nM at HDAC6.
For `CCS(=O)(=O)N(CC(Nc1ncc(-c2nnc(C(F)F)o2)cn1)c1ccc(F)cc1)CC(F)(F)F` (single isomer, unassigned) [164(+), N-(2-((5-(5-(difluoromethyl)-1,3,4-oxadiazol-2-yl)pyrimidin-2-yl)amino)-2-(4-fluorophenyl)ethyl)-N-(2,2,2-trifluoroethyl)ethanesulfonamide], in that order: over 30000 nM and 110 nM.
Turning to `CS(=O)(=O)NCC(Nc1ncc(-c2nnc(C(F)F)o2)cn1)c1ccc(F)cc1F` (single isomer, unassigned) [103(−), N-(2-((5-(5-(difluoromethyl)-1,3,4-oxadiazol-2-yl)pyrimidin-2-yl)amino)-2-(2,4-difluorophenyl)ethyl)methanesulfonamide], the IC50 on HDAC1 was over 30000 nM; on HDAC6 it was 650 nM.
With `Fc1ccc(C(CC(F)(F)F)Nc2ncc(-c3nnc(C(F)F)o3)cn2)c(F)c1` (single isomer, unassigned) [101(−)], the IC50 at HDAC1 was over 30000 nM; at HDAC6, 710 nM.
Consider `Cc1ccc(Cl)c(C2(Nc3ncc(-c4nnc(C(F)F)o4)cn3)CC2)c1` [Example 90, N-(1-(2-chloro-5-methylphenyl)cyclopropyl)-5-(5-(difluoromethyl)-1,3,4-oxadiazol-2-yl)pyrimidin-2-amine], for which the IC50 at HDAC1 is over 30000 nM; on HDAC6, 35 nM.
With `Fc1ccc(C(CC(F)(F)F)Nc2ncc(-c3nnc(C(F)F)o3)cn2)c(F)c1` (single isomer, unassigned) [101(+)], the IC50 on HDAC1 is over 30000 nM; on HDAC6 it was 22 nM.
For the compound `CN(CC(Nc1ncc(-c2nnc(C(F)F)o2)cn1)c1ccc(F)cc1F)S(C)(=O)=O` (single isomer, unassigned) [137(+), N-(2-((5-(5-(difluoromethyl)-1,3,4-oxadiazol-2-yl)pyrimidin-2-yl)amino)-2-(2,4-difluorophenyl)ethyl)-N-methylmethanesulfonamide], the IC50 on HDAC1 was over 30000 nM; at HDAC6, 41 nM.
Regarding `FC(F)c1nnc(-c2cnc(NC3(c4ccc(Br)nc4)CC3)nc2)o1` [Example 64, N-(1-(6-bromopyridin-3-yl)cyclopropyl)-5-(5-(difluoromethyl)-1,3,4-oxadiazol-2-yl)pyrimidin-2-amine], the IC50 on HDAC1 is over 30000 nM; on HDAC6 it was 28 nM.
In the case of `O=C(NCC(Nc1ncc(-c2nnc(C(F)F)o2)cn1)c1ccc(F)cc1)c1ccccc1` (stereo not drawn) [Example 79, N-(2-((5-(5-(difluoromethyl)-1,3,4-oxadiazol-2-yl)pyrimidin-2-yl)amino)-2-(4-fluorophenyl)ethyl)benzamide], the IC50 on HDAC1 was over 30000 nM; on HDAC6, 76 nM.
Regarding `CN(CC(Nc1ncc(-c2nnc(C(F)F)o2)cn1)c1ccc(OC(F)(F)F)cc1)S(=O)(=O)C1CC1` (stereo not drawn) [159(+), N-(2-((5-(5-(difluoromethyl)-1,3,4-oxadiazol-2-yl)pyrimidin-2-yl)amino)-2-(4-(trifluoromethoxy)phenyl)ethyl)-N-methylcyclopropanesulfonamide], the IC50 was over 30000 nM at HDAC1 and 90 nM at HDAC6.
For `Fc1ccc2c(c1)CCC2Nc1ncc(-c2nnc(C(F)F)o2)cn1` (stereo not drawn) [Example 29, 5-(5-(difluoromethyl)-1,3,4-oxadiazol-2-yl)-N-(5-fluoro-2,3-dihydro-1H-inden-1-yl)pyrimidin-2-amine] the same measures were over 30000 nM and 450 nM.
For `CS(=O)(=O)Nc1ccccc1CC(Nc1ncc(-c2nnc(C(F)F)o2)cn1)c1ccc(F)cc1` (stereo not drawn) [Example 131, N-(2-(2-((5-(5-(difluoromethyl)-1,3,4-oxadiazol-2-yl)pyrimidin-2-yl)amino)-2-(4-fluorophenyl)ethyl)phenyl)methanesulfonamide], in that order: over 30000 nM and 58 nM.
For the compound `CS(=O)(=O)N(CC(Nc1ncc(-c2nnc(C(F)F)o2)cn1)c1ccc(F)cc1)CC(F)(F)F` (stereo not drawn) [Example 118, N-(2-((5-(5-(difluoromethyl)-1,3,4-oxadiazol-2-yl)pyrimidin-2-yl)amino)-2-(4-fluorophenyl)ethyl)-N-(2,2,2-trifluoroethyl)methanesulfonamide], the IC50 is over 30000 nM on HDAC1 and 72 nM at HDAC6.
Regarding `CCS(=O)(=O)N(C)CC(Nc1ncc(-c2nnc(C(F)F)o2)cn1)c1ccc(F)cc1F` (stereo not drawn) [140(+), N-(2-((5-(5-(difluoromethyl)-1,3,4-oxadiazol-2-yl)pyrimidin-2-yl)amino)-2-(2,4-difluorophenyl)ethyl)-N-methylethanesulfonamide], the IC50 was over 30000 nM at HDAC1 and 58 nM on HDAC6.
For `COc1ccc(C2(Nc3ncc(-c4nnc(C(F)F)o4)cn3)CC2)cc1` [Example 44, 5-(5-(difluoromethyl)-1,3,4-oxadiazol-2-yl)-N-(1-(4-methoxyphenyl)cyclopropyl)pyrimidin-2-amine], the values for the IC50 on HDAC1 and on HDAC6 were over 30000 nM and 44 nM, respectively.
Consider `Fc1ccc(-c2cccc(C3(Nc4ncc(-c5nnc(C(F)F)o5)cn4)CC3)c2)cc1` [Example 18, 5-(5-(difluoromethyl)-1,3,4-oxadiazol-2-yl)-N-(1-(4′-fluoro-[1,1′-biphenyl]-3-yl)cyclopropyl)pyrimidin-2-amine], for which the IC50 on HDAC1 is over 30000 nM; on HDAC6, 58 nM.
For the compound `CC(Nc1ncc(-c2nnc(C(F)F)o2)cn1)c1ccccc1` (stereo not drawn) [Example 6, 5-(5-(difluoromethyl)-1,3,4-oxadiazol-2-yl)-N-(1-phenylethyl)pyrimidin-2-amine], the IC50 at HDAC1 was over 30000 nM; on HDAC6 it was 57 nM.

The values are drawn from US10357493B2, “Metalloenzyme inhibitor compounds” (Selenity Therapeutics (Bermuda), Ltd., priority 2017, dated 2019).
